Assay [1] deals with wild type neonatal mouse cardiomyocytes (NMCMs). The experiment in a line: Gene expression (qPCR) in cultured wild type neonatal mouse cardiomyocytes after treatment. The class given is cell-based. The settings on record: for expression of mitosis regulating genes / Wee1 gene expression / expression of clock (circadian) genes: wild type NMCMs; for expression of mitosis regulating genes: norepinephrine 1 μM (FIG. 4C); for Wee1 gene expression: norepinephrine 1 μM (FIG. 5E); for expression of clock (circadian) genes: reset with 50% serum, norepinephrine 1 μM, after 48 hrs of treatment (FIG. 4B). As to the method:
Cardiomyocytes were isolated from P0 or P1 mouse hearts using a neonatal cardiomyocyte isolation kit (Miltenyi Biotec) based on manufacturer's instructions. Before plating, cardiomyocytes were filtered through a 70 μm mesh and single cells were cultured in 24-well plates coated with gelatin. The cells were first maintained in 5% fetal bovine serum (FBS) in DMEM with Pen/Strep antibiotics for 24 hours and subsequently treated for at least 2 hours with 50% horse serum in DMEM and then for 2 days with 5% FBS in DMEM. Cardiomyocytes were treated with Norepinephrine (1 μM) (Sigma) or Nerve Growth Factor (NGF, 20 ng/ml) (PeproTech) as indicated.
RNA was isolated from mouse hearts and cultured cardiomyocytes using Trizol, and cDNA was generated using the high-capacity cDNA reverse transcription kit (Applied Biosystems). qPCR reactions were performed using the Sybr Select qPCR mix (Thermo Fisher) with indicated primers. Gene expression levels were normalized to Gapdh or Rpl32.
(In general: In qPCR the cycle at which signal appears reflects the starting amount.)

The subject of assay [2] is Per1/Per2 DKO neonatal mouse cardiomyocytes. Nature of the assay: Gene expression (qPCR) in cultured cardiomyocytes from Per1/Per2 DKO neonatal mouse hearts after treatment. In kind it is cell-based. The settings on record: for expression of cell cycle / mitosis regulating genes: norepinephrine 1 μM (FIG. 4C); for Wee1 gene expression: norepinephrine 1 μM (FIG. 5E). From the text: Sm22a-Cre (017491) and C57BL/6 mice were obtained from Jackson Lab. NGF +/− mice, Per1/Per2 DKO mice, and Mesp1-Cre mice were as described elsewhere (see, e.g., Wheeler et al., Neuron, 82: 587-602 (2014); Muller et al., J. Neurosci., 32: 14885-14898 (2012); and Saga et al., Development, 126: 3437-3447 (1999)). The animals were randomly allocated to experimental groups and both male and female mice were equally used in all experimental assays. All mouse hearts and cardiomyocytes were harvested at random times during the day unless specified otherwise. Cardiomyocytes were isolated from P0 or P1 mouse hearts using a neonatal cardiomyocyte isolation kit (Miltenyi Biotec) based on manufacturer's instructions. Before plating, cardiomyocytes were filtered through a 70 μm mesh and single cells were cultured in 24-well plates coated with gelatin. The cells were first maintained in 5% fetal bovine serum (FBS) in DMEM with Pen/Strep antibiotics for 24 hours and subsequently treated for at least 2 hours with 50% horse serum in DMEM and then for 2 days with 5% FBS in DMEM. Cardiomyocytes were treated with Norepinephrine (1 μM) (Sigma) or Nerve Growth Factor (NGF, 20 ng/ml) (PeproTech) as indicated. RNA was isolated from mouse hearts and cultured cardiomyocytes using Trizol, and cDNA was generated using the high-capacity cDNA reverse transcription kit (Applied Biosystems). qPCR reactions were performed using the Sybr Select qPCR mix (Thermo Fisher) with indicated primers. Gene expression levels were normalized to Gapdh or Rpl32.

Experimental findings from patent US20250066778A1, “METHODS AND MATERIALS FOR TREATING HEART ATTACK” (THE JOHNS HOPKINS UNIVERSITY, priority 2022, published 2025) are described below.

As for `NC[C@H](O)c1ccc(O)c(O)c1` [Norepinephrine], in assay [1], the “expression of mitosis regulating genes” value is “decreased the expression of mitosis regulating genes”, the Wee1 gene expression result was “induced Wee1 gene expression” and the “expression of clock (circadian) genes” value is “induces the expression of circadian genes”. Besides, in assay [1] (listed as norepinephrine), the “expression of mitosis regulating genes” value is given as “suppressed mitosis genes”; the Wee1 gene expression entry was “induces Wee1 expression”; the “expression of clock (circadian) genes” value is “induced Per1 and Per2 as well as Cryptochrome1 (Cry1) and Cry2 genes”. Also, in assay [2], the “expression of cell cycle / mitosis regulating genes” value is “failed to suppress mitosis regulating genes apart from Aurkb” and the Wee1 gene expression result was “this effect was not observed in Per1/Per2 DKO cardiomyocytes”. Besides, in assay [2] (listed as norepinephrine), the “expression of cell cycle / mitosis regulating genes” value is “no significant effect on cell cycle genes apart from Aurkb” and the Wee1 gene expression entry is given as “this effect was not observed in the absence of Per1/Per2”.

“NGF: Nerve Growth Factor (PeproTech), used at 20 ng/ml on neonatal mouse cardiomyocytes”: the “cell cycle gene expression” value in assay [1] (ex vivo treatment of NMCMs with NGF 20 ng/ml (FIG. 9E)) is “did not affect cell cycle gene expression”.
